Measurements taken from the supplement of paper PMC10307832.

Experiments:
Assay in all cases: relative viability (nuclei count vs DMSO), 5 days (fraction); higher = more cells survive
Ibrutinib + Navitoclax = compound: C=CC(=O)N1CCC[C@@H](n2nc(-c3ccc(Oc4ccccc4)cc3)c3c(N)ncnc32)C1 [Ibrutinib] + CC1(C)CCC(c2ccc(Cl)cc2)=C(CN2CCN(c3ccc(C(=O)NS(=O)(=O)c4ccc(N[C@H](CCN5CCOCC5)CSc5ccccc5)c(S(=O)(=O)C(F)(F)F)c4)cc3)CC2)C1 [Navitoclax] (partner 0.5 µM)
Method in brief: (§1)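 Lung cancer cell lines, seeded in 1536-well plates, were treated the following day by pin tool with a single drug or with five library-drug doses (not always all listed) in √10 steps on top of a fixed anchor-drug dose. Cells were fixed and nuclei stained in one step after 5 days, and nuclei were counted. Relative viability is the nuclei count for treated wells divided by that for vehicle wells, reported as medians of duplicate plates.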

Ibrutinib + Phenformin = compound: C=CC(=O)N1CCC[C@@H](n2nc(-c3ccc(Oc4ccccc4)cc3)c3c(N)ncnc32)C1 [Ibrutinib] + N=C(N)NC(=N)NCCc1ccccc1 [Phenformin] (partner 250 µM)
Method in brief: as §1

BMX-IN-1 + Trametinib = compound: C=CC(=O)Nc1cc(-n2c(=O)ccc3cnc4ccc(-c5ccc(NS(C)(=O)=O)cc5)cc4c32)ccc1C [BMX-IN-1] + CC(=O)Nc1cccc(-n2c(=O)n(C3CC3)c(=O)c3c(Nc4ccc(I)cc4F)n(C)c(=O)c(C)c32)c1 [Trametinib] (partner 0.02 µM)
Method in brief: as §1

BMX-IN-1 + Luminespib = compound: C=CC(=O)Nc1cc(-n2c(=O)ccc3cnc4ccc(-c5ccc(NS(C)(=O)=O)cc5)cc4c32)ccc1C [BMX-IN-1] + CCNC(=O)c1noc(-c2cc(C(C)C)c(O)cc2O)c1-c1ccc(CN2CCOCC2)cc1 [Luminespib] (partner 0.01 µM)
Method in brief: as §1

NCI-H23
relative viability (Ibrutinib + Navitoclax; first compound 0.005 µM): 0.853
relative viability (Ibrutinib + Navitoclax; first compound 0.01581 µM): 0.886
relative viability (Ibrutinib + Navitoclax; first compound 0.05 µM): 0.771
relative viability (Ibrutinib + Navitoclax; first compound 0.1581 µM): 0.787
relative viability (Ibrutinib + Navitoclax; first compound 0.5 µM): 0.97
relative viability (Ibrutinib + Phenformin; first compound 0.005 µM): 0.674
relative viability (Ibrutinib + Phenformin; first compound 0.01581 µM): 0.777
relative viability (Ibrutinib + Phenformin; first compound 0.05 µM): 0.789
relative viability (Ibrutinib + Phenformin; first compound 0.1581 µM): 0.861
relative viability (Ibrutinib + Phenformin; first compound 0.5 µM): 0.797
relative viability (BMX-IN-1 + Trametinib; first compound 0.02 µM): 0.38
relative viability (BMX-IN-1 + Trametinib; first compound 0.2 µM): 0.423
relative viability (BMX-IN-1 + Trametinib; first compound 0.6325 µM): 0.318
relative viability (BMX-IN-1 + Trametinib; first compound 2 µM): 0.361
relative viability (BMX-IN-1 + Luminespib; first compound 0.02 µM): 0.209
relative viability (BMX-IN-1 + Luminespib; first compound 0.2 µM): 0.203
relative viability (BMX-IN-1 + Luminespib; first compound 0.6325 µM): 0.22
relative viability (BMX-IN-1 + Luminespib; first compound 2 µM): 0.208
